Test results reported in patent US9522882B2, “Strigolactam derivatives as plant growth regulating compounds” (Syngenta Participations AG, priority 2011, dated 2016).

How the values were obtained:
[1] = tested on: Orobanche cumana Wallr. seeds; experiment: Orobanche cumana seed germination test on glass fiber filter paper in petri dishes; assay type: in vivo; details: mean, n = 5 × 100 seeds; for Germination %* at concentration of 0.001 mg I^−1 / Germination %* at concentration of 0.01 mg I^−1 / Germination %* at concentration of 0.1 mg I^−1: preconditioned Orobanche cumana seeds of lot IN153, race F
Protocol: The effect of compounds of Formula (I) on germination of Orobanche cumana Wallr. seeds was evaluated on glass fiber filter paper (GFFP) in petri dishes. Seeds were preconditioned at moisture and suitable temperature to become responsive to the specific chemical germination stimulants.
Test compounds were dissolved in DMSO (10 000 mg l^−1) and stored at room temperature in a desiccators with desiccants. The stock solutions were dissolved with deionised water to the appropriate final test concentration.
Seeds of O. cumana race ‘F’ were collected from sunflower fields in Manzanilla (Seville, Spain) in 2006 (seed lot 1N146) and 2008 (seed lot 1N153) and stored at room temperature. To separate seeds from heavy organic debris, a modified sucrose floatation technique as described by Hartman & Tanimonure (Plant Disease (1991), 75, p. 494) was applied. Seeds were filled into a separation funnel and stirred in water. When seeds floated to the surface, the water fraction containing heavy debris was discarded. Seeds were re-suspended in 2.5M sucrose solution (specific gravity of 1.20) and heavy debris was allowed to settle down for 60 min. After removing debris, seeds were disinfected in 1% sodium hypochlorite solution and 0.025% (v/v) Tween 20 for 2 min. The seeds were decanted onto two layers of cheesecloth, rinsed with sterile deionised water and re-suspended in sterile deionised water. Two ml of the seed suspension containing approximately 150-400 seeds were spread evenly on two layers of sterile glass fiber filter paper disc ([…]) in Petri dishes (Ø9 cm). After wetting the discs with 3 ml sterile deionised water, petri dishes were sealed with parafilm. Seeds were incubated for 10 days at 20° C. in the dark for seed conditioning. The upper disc with conditioned seeds was briefly dried, transferred to a petri dish lined with a dry GFFP disc, and wetted with 6 ml of the appropriate test solution. The compounds of Formula (I) were tested at concentrations of 0.001, 0.01, and 0.1 mg l^−1. The strigolactone analogue GR24 (commercially available as a mixture of isomers) was included as positive control and 0.001% DMSO as negative control. All treatments were tested in five replicates. Seeds were re-incubated at 20° C. in the dark and examined for germination 10 days later. The radicles of germinated seeds were stained for 5 min with blue ink (MIGROS, Switzerland) in 5% acetic acid according to Long et al. (Seed Science Research (2008), 18, p. 125). After staining, seeds were scanned using a flatbed scanner with an optical resolution of 1200 dpi (PULSTEK, OpticPro ST28) or photographed using a camera stand mounted with a digital SLR camera (Canon EOS 5D). Germination of 100 seeds per replicate was evaluated on digital images. Seeds were considered germinated when the radicle protruded from the seed coat.

[2] = tested on: Brassica oleracea cv Botrytis; experiment: Standard paper germination test for Brassica (tropical cauliflower seeds, 20° C. in the dark); assay type: in vivo; details: tropical cauliflower 3C150 (seed batch 11B295), 25 μM; for Gmax (total germination): DMSO treatment = 31.3%
Protocol: The effect of compounds of Formula (I) on the germination of Brassica oleracea cv Botrytis or common cauliflower was tested on tropical types. […] Germination of a sensitive tropical type at 20° is stimulated by the presence of light.
The tropical seed batch tested was part of seed batches produced as basic seed (for maintenance of the parental line) and were processed accordingly.
Germination was assessed using the standard paper germination test for Brassica: Fifty seeds were placed on blue germination paper, which was moistened with the appropriate solutions, in closed oblong germination boxes. Each condition was tested in duplo. Germination boxes were placed in controlled germination cabinets with the appropriate temperature and light conditions. Germination of seeds was counted at regular intervals. Seeds were considered to be germinated when the radical had protruded the testa and endosperm (radical size approximately 1 mm). Germination kinetics were analyzed using the Germinator analysis tool in order to obtain the parameters: Gmax (maximum germination) and t50 (time needed to reach 50% of the Gmax). The Germinator analysis tool is an add-in in for excel developed by the University of Wageningen: Joosen, R. V. L., J. Kodde, et al. (2010). (“Germinator: A Software Package for High-Throughput Scoring and Curve Fitting of Arabidopsis Seed Germination.” The Plant Journal 62(1): 148-159.)
Test compounds were dissolved in DMSO at a concentration of 50 mM and stored at −20° C. The strigolactone analogue GR24 (commercially available as a racemic mixture of 2 diastereoisomers, referred to as “synthetic strigolactone GR-24” and first prepared by Johnson A. W. & all, Journal of the Chemical Society, Perkin Transactions 1, 1981, page 1734-1743) was included as positive control. Germination solutions were prepared by diluting the stock solutions with demineralized water till 25 μM. As control solutions demineralized water and a 0.05% v/v DMSO solution were used.

[3] = Table 6, preconditioned seeds of lot IN153, raceF, aqueous control (0.001% DMSO) = 0.8% germination
[4] = aqueous control (0.001% DMSO) = 0.2% germination
[5] = Table 5, preconditioned seeds of lot IN153, raceF, aqueous control (0.001% DMSO) = 0.2% germination
[6] = Table 3, preconditioned seeds of lot IN146, raceF, aqueous control (0.001% DMSO) = 0% germination
[7] = Table 4, preconditioned seeds of lot IN146, raceF, aqueous control (0.001% DMSO) = 0% germination

Structure (SMILES): C=Cc1cccc2c1C[C@@H]1/C(=C\O[C@H]3C=C(C)C(=O)O3)C(=O)N[C@H]21 (relative stereo) [Compound A7]
- Germination % at concentration of 0.001 mg I^−1 [1, 3]: 96.4%
- Germination % at concentration of 0.01 mg I^−1 [1, 3]: 96.8%
- Germination % at concentration of 0.1 mg I^−1 [1, 3]: 95.4%

Structure (SMILES): CC1=CC(OC=C2C(=O)NC3c4cccc(-c5cccnc5)c4CC23)OC1=O (mixture of isomers) [Compound A11]
- Germination %* at concentration of 0.001 mg I^−1 [1, 4]: 30.0%
- Germination %* at concentration of 0.01 mg I^−1 [1, 4]: 65.6%
- Germination %* at concentration of 0.1 mg I^−1 [1, 4]: 90.8%

Structure (SMILES): CC#Cc1cccc2c1C[C@@H]1/C(=C\O[C@H]3C=C(C)C(=O)O3)C(=O)N[C@H]21 (relative stereo) [Compound A4]
- Germination % at concentration of 0.001 mg I^−1 [1, 5]: 97.6%
- Germination % at concentration of 0.01 mg I^−1 [1, 5]: 94.4%
- Germination % at concentration of 0.1 mg I^−1 [1, 5]: 98.2%

Structure (SMILES): CC1=CC(OC=C2C(=O)NC3c4cccc(-c5ccncc5)c4CC23)OC1=O (mixture of isomers) [Compound A10]
- Germination %* at concentration of 0.001 mg I^−1 [1, 4]: 11.2%
- Germination %* at concentration of 0.01 mg I^−1 [1, 4]: 18.0%
- Germination %* at concentration of 0.1 mg I^−1 [1, 4]: 24.0%

Structure (SMILES): CC1=CC(OC=C2C(=O)NC3c4cccc(-c5ccccc5)c4CC23)OC1=O (mixture of isomers) [Compound A9]
- Germination %* at concentration of 0.001 mg I^−1 [1, 4]: 53.4%
- Germination %* at concentration of 0.01 mg I^−1 [1, 4]: 84.4%
- Germination %* at concentration of 0.1 mg I^−1 [1, 4]: 76.8%

Structure (SMILES): CC1=C[C@H](O/C=C2/C(=O)O[C@@H]3c4ccccc4C[C@H]23)OC1=O [GR24, reference compound]
- Germination % at concentration of 0.001 mg I^−1 [1, 5]: 88.6%
- Germination % at concentration of 0.01 mg I^−1 [1, 5]: 96.0%
- Germination % at concentration of 0.1 mg I^−1 [1, 5]: 93.8%
- Germination % at concentration of 0.001 mg I^−1 [1, 3]: 79.8%
- Germination % at concentration of 0.01 mg I^−1 [1, 3]: 93.2%
- Germination % at concentration of 0.1 mg I^−1 [1, 3]: 96.8%
- Germination %* at concentration of 0.001 mg I^−1 [1, 4]: 60.8%
- Germination %* at concentration of 0.01 mg I^−1 [1, 4]: 83.2%
- Germination %* at concentration of 0.1 mg I^−1 [1, 4]: 90.6%
- stimulation (extra germination compared to the DMSO treatment, expressed as percentage of the DMSO treatment) [2]: 140.0%
- Gmax (total germination) [2]: 73.0%

Structure (SMILES): CC1=CC(OC=C2C(=O)NC3c4cccc(-c5nccs5)c4CC23)OC1=O (mixture of isomers) [Compound A12]
- Germination %* at concentration of 0.001 mg I^−1 [1, 4]: 13.0%
- Germination %* at concentration of 0.01 mg I^−1 [1, 4]: 7.0%
- Germination %* at concentration of 0.1 mg I^−1 [1, 4]: 26.8%

Structure (SMILES): C=CCc1cccc2c1C[C@@H]1/C(=C\O[C@H]3C=C(C)C(=O)O3)C(=O)N[C@H]21 (relative stereo) [Compound A1, (3aR*,8bS*, 5′R*)-5-allyl-3-[1-(4-Methyl-5-oxo-2,5-dihydro-furan-2-yloxy)-meth-(E)-ylidene]-3,3a,4,8b-tetrahydro-1H-indeno[1,2-b]pyrrol-2-one]
- Germination % at concentration of 0.001 mg I^−1 [1, 6]: 85.8%
- Germination % at concentration of 0.01 mg I^−1 [1, 6]: 82.0%
- Germination % at concentration of 0.1 mg I^−1 [1, 6]: 82.6%

Structure (SMILES): CC1=C[C@H](O/C=C2/C(=O)N[C@@H]3c4cccc(C#Cc5ccccc5)c4C[C@H]23)OC1=O (relative stereo) [Compound A6]
- Germination %* at concentration of 0.001 mg I^−1 [1, 4]: 2.6%
- Germination %* at concentration of 0.01 mg I^−1 [1, 4]: 40.2%
- Germination %* at concentration of 0.1 mg I^−1 [1, 4]: 83.6%

Structure (SMILES): COCC#Cc1cccc2c1C[C@@H]1/C(=C\O[C@H]3C=C(C)C(=O)O3)C(=O)N[C@H]21 (relative stereo) [Compound A5]
- Germination % at concentration of 0.001 mg I^−1 [1, 5]: 79.0%
- Germination % at concentration of 0.01 mg I^−1 [1, 5]: 91.4%
- Germination % at concentration of 0.1 mg I^−1 [1, 5]: 99.2%

Structure (SMILES): COC(=O)c1ccc2c(c1)C1NC(=O)/C(=C/O[C@H]3C=C(C)C(=O)O3)[C@H]1C2 (stereo in doubt) [Compound A3, methyl(3E,3aR,8bR)-3-[[(2R)-4-methyl-5-oxo-2H-furan-2-yl]oxymethylene]-2-oxo-1,3a,4,8b-tetrahydroindeno[1,2-b]pyrrole-7-carboxylate]
- Germination % at concentration of 0.001 mg I^−1 [1, 7]: 85.8%
- Germination % at concentration of 0.01 mg I^−1 [1, 7]: 82.0%
- Germination % at concentration of 0.1 mg I^−1 [1, 7]: 82.6%
- stimulation (extra germination compared to the DMSO treatment, expressed as percentage of the DMSO treatment) [2]: 36.7%
- Gmax (total germination) [2]: 43.0%

Structure (SMILES): CC1=C[C@H](O/C=C2/C(=O)N[C@@H]3c4c(cccc4C4CC4)C[C@H]23)OC1=O [Compound A8, (3E,3aR,8bS)-8-cyclopropyl-3-[[(2R)-4-methyl-5-oxo-2H-furan-2-yl]oxymethylene]-1,3a,4,8b-tetrahydroindeno[1,2-b]pyrrol-2-one]
- Germination %* at concentration of 0.001 mg I^−1 [1, 4]: 81.2%
- Germination %* at concentration of 0.01 mg I^−1 [1, 4]: 88.5%
- Germination %* at concentration of 0.1 mg I^−1 [1, 4]: 86.8%

Structure (SMILES): CC1=CC(OC=C2C(=O)NC3c4cccc(-c5ccco5)c4CC23)OC1=O (mixture of isomers) [Compound A13]
- Germination %* at concentration of 0.001 mg I^−1 [1, 4]: 13.4%
- Germination %* at concentration of 0.01 mg I^−1 [1, 4]: 66.4%
- Germination %* at concentration of 0.1 mg I^−1 [1, 4]: 90.0%

Structure (SMILES): C#Cc1cccc2c1C[C@@H]1/C(=C\O[C@H]3C=C(C)C(=O)O3)C(=O)N[C@H]21 [Compound A2, (3E,3aR,8bS)-5-ethynyl-3-[(4-methyl-5-oxo-2H-furan-2-yl)oxymethylene]-1,3a,4,8b-tetrahydroindeno[1,2-b]pyrrol-2-one]
- Germination % at concentration of 0.001 mg I^−1 [1, 6]: 85.8%
- Germination % at concentration of 0.01 mg I^−1 [1, 6]: 82.0%
- Germination % at concentration of 0.1 mg I^−1 [1, 6]: 86.2%
